Test results taken from patent publication US20040029910A1, “Protoberberine derivatives which inhibit activity of the mitogen-activated protein kinase” (priority 2000, published 2004).

Assays:
[1] = tested on: KGY246 cells, wild type Saccharomyces pombe; assay: Minimum inhibitory concentration (MIC) on Schizosaccharomyces pombe; type: cell-based; conditions: YE^AU medium; minimal concentration at which cell number stayed constant; 10% ethanol as solvent
Description: Measurement of Minimum Inhibitory Concentration(MIC) of Protoberberine Derivatives on Schizosaccharomyces pombe
KGY246 cells, wild type Saccharomyces pombe, were cultured in rich media YE^AU (yeast extract, peptone, malt extract, dextrose, agar: pH 6.2)containing 0.75 mg/L adenine and uracil to exponential phase. To determine minimum inhibitory concentration of each protoproberberine derivative, cells in exponential phase were transferred to YE^AU medium containing variable concentrations of protoberberine derivatives and cell number was measured every 3 hour. Thereafter, the minimal concentration on which cell number was maintained constantly was determined as minimum inhibitory concentration. The minimum inhibitory concentrations of protoberberine derivatives 13-(4-t-butylbenzyl)berberine chloride, 13-(4-(t-butyldimetylsilyloxy)benzyl)berberine chloride and 2,3,9,10-tetrapropoxyprotoberberine iodide of the present invention were 20 ug/mL, 7 ug/mL and 20 ug/mL respectively. To minimize inhibition by solvent itself, 10% ethanol was used as a solvent of protoberberine derivatives. The processes of cell culture and measurement of cell number described above were repeated using 13-benzylberberine iodide, 13-(4-chlorobenzyl)berberine iodide, 13-(3-bromobenzyl)berberine iodide, 13-(2,3-dichlorobenzyl) berberine chloride, 13-(2-chloro-6-fluorobenzyl)berberine chloride, 13-(4-fluoro-2-trifluoromethylbenzyl)berberine chloride, 13-(2,3,4,5,6-pentafluorobenzyl)berberine chloride, 13-(2,3,5,6-tetrafluoro-4-trifluoromethylbenzyl) berberine chloride, 13-(4-methylbenzyl)berberine chloride, 13-(2,4-dimethylbenzyl)berberine chloride, 13-(4-methyl-3-nitrobenzyl)berberine chloride, 13-(3-trifluoromethyl benzyl)berberine chloride, 13-(4-methoxybenzyl)berberine chloride, 13-(4-trifluoromethoxybenzyl)berberine chloride, 13-(4-methoxycarbonylbenzyl)berberine chloride, 13-(4-i-propylbenzyl)berberine chloride. These compounds also had the minimum concentration of inhibition at the concentration of 18-22 ug/mL.

[2] = tested on: knock-out mutant of wis1 (JM544); assay: Growth (cell number) of wis1 knock-out mutant; type: cell-based, Schizosaccharomyces pombe; conditions: for inhibition of the activity of Wis1 kinase, concluded from effects on knock-out mutants: conclusion from growth of knock-out mutants; for inhibition of the knock-out mutant of wis1 (in words): table 5
Description: To investigate the effect of protoberberine derivatives on the growth of cells, the cells of each strain were cultured in rich medium YE^AU to exponential phase(5×10^7 cells/mL). […]

[3] = tested on: knock-out mutant of spc1 (KS1366); assay: Growth (cell number) of spc1 knock-out mutant; type: cell-based, Schizosaccharomyces pombe; conditions: for inhibition of the knock-out mutant of spc1 (in words): table 6
Description: To investigate the effect of protoberberine derivatives on the growth of cells, the cells of each strain were cultured in rich medium YE^AU to exponential phase(5×10^7 cells/mL). […] Then cell number was measured every 3 hours.

[4] = tested on: knock-out mutant of spm1 in Mhk1-Spm1 pathway (TZs69); assay: Growth (cell number) of spm1 knock-out mutant; type: cell-based, Schizosaccharomyces pombe
Description: (§1) To investigate the effect of protoberberine derivatives on the growth of cells, the cells of each strain were cultured in rich medium YE^AU to exponential phase(5×10^7 cells/mL). These cells were transferred to YE^AU medium and cultured for 12 hours. Then cell number was measured every 3 hours.

[5] = tested on: knock-out mutant of byr2 in Ras-Byr2 pathway (SPSU); assay: Growth (cell number) of byr2 knock-out mutant; type: cell-based, Schizosaccharomyces pombe
Description: as §1

[6] = tested on: knock-out mutant of win1 (ED1388); assay: Growth (cell number) of win1 knock-out mutant; type: cell-based, Schizosaccharomyces pombe; conditions: Table 7, win1 knock-out
Description: as §1
(§2) The knock-out mutant of win1 and wis4 was cultured and treated with 13-(4-t-butylbenzyl)berberine chloride, 13-(4-(t-butyldimethylsilyloxy)benzyl)berberine chloride or 2,3,9,10-tetrapropoxyprotoberberine iodide of the compounds 13-benzylberberine iodide, 13-(4-chloro benzyl)berberine iodide, 13-(3-bromobenzyl)berberine iodide, 13-(2,3-dichlorobenzyl)berberine chloride, 13-(2-chloro-6-fluorobenzyl)berberine chloride, 13-(4-fluoro-2-trifluoromethylbenzyl)berberine chloride, 13-(2,3,4,5,6-pentafluorobenzyl)berberine chloride, 13-(2,3,5,6-tetra fluoro-4-trifluoromethylbenzyl)berberine chloride, 13-(4-methylbenzyl)berberine chloride, 13-(2,4-dimethylbenzyl) berberine chloride, 13-(4-methyl-3-nitrobenzyl)berberine chloride, 13-(3-trifluoromethylbenzyl)berberine chloride, 13-(4-methoxybenzyl)berberine chloride, 13-(4-trifluoro methoxybenzyl)berberine chloride, 13-(4-methoxycarbonyl benzyl)berberine chloride, 13-(4-t-butylbenzyl)berberine chloride, 13-(4-1-propylbenzyl) berberine chloride, 13-(4-(t-butyldimethylsilyloxy)benzyl) berberine chloride, 13-(4-t-butylbenzyl)palmatine iodide, 13-(4-(t-butyldimethyl silyloxy)benzyl)palmatine chloride and 2,3,9,10-tetra propoxyprotoberberine iodide.

[7] = tested on: knock-out mutant of wis4 (ED1292); assay: Growth (cell number) of wis4 knock-out mutant; type: cell-based, Schizosaccharomyces pombe; conditions: Table 8, wis4 knock-out
Description: as §1, §2

[8] = Table 5, wis1 knock-out, time 12, miconazole 3 ug/mL
[9] = Table 5, wis1 knock-out, time 15, miconazole 3 ug/mL
[10] = Table 5, wis1 knock-out, time 18, miconazole 3 ug/mL
[11] = Table 5, wis1 knock-out, time 21, miconazole 3 ug/mL
[12] = Table 5, wis1 knock-out, time 24, miconazole 3 ug/mL
[13] = Table 6, spc1 knock-out, time 15, miconazole 3 ug/mL
[14] = Table 6, spc1 knock-out, time 18, miconazole 3 ug/mL
[15] = Table 6, spc1 knock-out, time 21, miconazole 3 ug/mL
[16] = Table 6, spc1 knock-out, time 24, miconazole 3 ug/mL
[17] = Table 4, spm1 knock-out, time 12, miconazole 3 ug/mL
[18] = Table 4, spm1 knock-out, time 15, miconazole 3 ug/mL
[19] = Table 4, spm1 knock-out, time 18, miconazole 3 ug/mL
[20] = Table 4, spm1 knock-out, time 21, miconazole 3 ug/mL
[21] = Table 4, spm1 knock-out, time 24, miconazole 3 ug/mL
[22] = Table 3, byr2 knock-out, time 12, miconazole 3 ug/mL
[23] = Table 3, byr2 knock-out, time 15, miconazole 3 ug/mL
[24] = Table 3, byr2 knock-out, time 18, miconazole 3 ug/mL
[25] = Table 3, byr2 knock-out, time 21, miconazole 3 ug/mL
[26] = Table 3, byr2 knock-out, time 24, miconazole 3 ug/mL

Q: `COc1ccc2c(Cc3ccc(C(C)(C)C)cc3)c3[n+](cc2c1OC)CCc1cc2c(cc1-3)OCO2.[Cl-]` [13-(4-t-butylbenzyl)berberine chloride] was tested. Which minimum inhibitory concentration [1] did it give?
A: 20 µg/mL

Q: What about the cell number [2, 8] of the same compound?
A: 154

Q: And the cell number [2, 9]?
A: 319

Q: What about the cell number [2, 10] of the same compound?
A: 538

Q: And the cell number [2, 11]?
A: 1265

Q: And the cell number [2, 12]?
A: 1788

Q: And the “inhibition of the activity of Wis1 kinase, concluded from effects on knock-out mutants” value [2]?
A: inhibit

Q: What about the “inhibition of the knock-out mutant of wis1 (in words)” value (from here on “inhibition … of wis1 (in words)”) [2] of the same compound?
A: not inhibited

Q: What about the cell number [3, 13] of the same compound?
A: 299

Q: What about the cell number [3, 14] of the same compound?
A: 488

Q: And the cell number [3, 15]?
A: 874

Q: And the cell number [3, 16]?
A: 1083

Q: And the “inhibition of the knock-out mutant of spc1 (in words)” value (“inhibition … of spc1 (in words)” below) [3]?
A: partially inhibited

Q: And the cell number [4, 17]?
A: 89

Q: What about the cell number [4, 18] of the same compound?
A: 113

Q: What about the cell number [4, 19] of the same compound?
A: 131

Q: And the cell number [4, 20]?
A: 118

Q: What about the cell number [4, 21] of the same compound?
A: 125

Q: And the cell number [5, 22]?
A: 156

Q: What about the cell number [5, 23] of the same compound?
A: 150

Q: What about the cell number [5, 24] of the same compound?
A: 147

Q: And the cell number [5, 25]?
A: 136

Q: And the cell number [5, 26]?
A: 128

Q: What about the cell number ([6]; time 13) of the same compound?
A: 28

Q: And the cell number ([6]; time 16)?
A: 26

Q: And the cell number ([6]; time 19)?
A: 17

Q: What about the cell number ([6]; time 22) of the same compound?
A: 37

Q: What about the cell number ([6]; time 25) of the same compound?
A: 13

Q: And the cell number ([7]; time 13)?
A: 24

Q: And the cell number ([7]; time 16)?
A: 45

Q: What about the cell number ([7]; time 19) of the same compound?
A: 36

Q: And the cell number ([7]; time 22)?
A: 23

Q: And the cell number ([7]; time 25)?
A: 19

Q: With `CCCOc1cc2c(cc1OCCC)-c1cc3ccc(OCCC)c(OCCC)c3c[n+]1CC2.[I-]` [2,3,9,10-tetrapropoxyprotoberberine iodide] as the compound, how does the minimum inhibitory concentration [1] read?
A: 20 µg/mL

Q: What about the cell number [2, 8] of the same compound?
A: 164

Q: And the cell number [2, 9]?
A: 325

Q: What about the cell number [2, 10] of the same compound?
A: 502

Q: What about the cell number [2, 11] of the same compound?
A: 1041

Q: And the cell number [2, 12]?
A: 1574

Q: And the “inhibition of the activity of Wis1 kinase, concluded from effects on knock-out mutants” value [2]?
A: inhibit

Q: And the “inhibition … of wis1 (in words)” value [2]?
A: not inhibited

Q: And the cell number ([3]; Table 6, spc1 knock-out, time 12, miconazole 3 ug/mL)?
A: 201

Q: What about the cell number [3, 13] of the same compound?
A: 382

Q: What about the cell number [3, 14] of the same compound?
A: 676

Q: What about the cell number [3, 15] of the same compound?
A: 1232

Q: And the cell number [3, 16]?
A: 1634

Q: And the “inhibition of the activity of Spc1 kinase, concluded from effects on knock-out mutants” value ([3]; conclusion from growth of knock-out mutants)?
A: inhibit

Q: What about the “inhibition … of spc1 (in words)” value [3] of the same compound?
A: completely inhibited

Q: What about the cell number [4, 17] of the same compound?
A: 117

Q: What about the cell number [4, 18] of the same compound?
A: 4

Q: And the cell number [4, 19]?
A: 7

Q: What about the cell number [4, 20] of the same compound?
A: 165

Q: And the cell number [4, 21]?
A: 228

Q: And the cell number [5, 22]?
A: 220

Q: What about the cell number [5, 23] of the same compound?
A: 207

Q: And the cell number [5, 24]?
A: 185

Q: And the cell number [5, 25]?
A: 167

Q: And the cell number [5, 26]?
A: 155

Q: What about the cell number ([6]; time 13) of the same compound?
A: 102

Q: And the cell number ([6]; time 16)?
A: 210

Q: What about the cell number ([6]; time 19) of the same compound?
A: 423

Q: And the cell number ([6]; time 22)?
A: 750

Q: And the cell number ([6]; time 25)?
A: 1575

Q: And the cell number ([7]; time 13)?
A: 96

Q: What about the cell number ([7]; time 16) of the same compound?
A: 113

Q: What about the cell number ([7]; time 19) of the same compound?
A: 265

Q: What about the cell number ([7]; time 22) of the same compound?
A: 645

Q: And the cell number ([7]; time 25)?
A: 1250

Q: How did the minimum inhibitory concentration [1] turn out when `COc1ccc2c(Cc3ccc(O[Si](C)(C)C(C)(C)C)cc3)c3[n+](cc2c1OC)CCc1cc2c(cc1-3)OCO2.[Cl-]` [13-(4-(t-butyldimethylsilyloxy)benzyl)berberine chloride] was run?
A: 7 µg/mL

Q: What about the cell number ([2]; Table 2, wis1 knock-out, time 14) of the same compound?
A: 257

Q: What about the cell number ([2]; Table 2, wis1 knock-out, time 17) of the same compound?
A: 665

Q: And the cell number ([2]; Table 2, wis1 knock-out, time 20)?
A: 1355

Q: What about the cell number ([2]; Table 2, wis1 knock-out, time 23) of the same compound?
A: 3100

Q: What about the “inhibition of the activity of Wis1 kinase, concluded from effects on knock-out mutants” value [2] of the same compound?
A: inhibit

Q: What about the “inhibition … of wis1 (in words)” value [2] of the same compound?
A: not inhibited

Q: And the cell number ([3]; Table 2, spc1 knock-out, time 14)?
A: 57

Q: And the cell number ([3]; Table 2, spc1 knock-out, time 17)?
A: 90

Q: What about the cell number ([3]; Table 2, spc1 knock-out, time 20) of the same compound?
A: 173

Q: And the cell number ([3]; Table 2, spc1 knock-out, time 23)?
A: 210

Q: What about the “inhibition … of spc1 (in words)” value [3] of the same compound?
A: not inhibited at all

Q: What about the cell number ([4]; Table 2, Spm1 knock-out, time 14) of the same compound?
A: 55

Q: And the cell number ([4]; Table 2, Spm1 knock-out, time 17)?
A: 94

Q: What about the cell number ([4]; Table 2, Spm1 knock-out, time 20) of the same compound?
A: 266

Q: What about the cell number ([4]; Table 2, Spm1 knock-out, time 23) of the same compound?
A: 450

Q: And the cell number ([5]; Table 2, byr2 knock-out, time 14)?
A: 34

Q: And the cell number ([5]; Table 2, byr2 knock-out, time 17)?
A: 72

Q: What about the cell number ([5]; Table 2, byr2 knock-out, time 20) of the same compound?
A: 156

Q: And the cell number ([5]; Table 2, byr2 knock-out, time 23)?
A: 292

Q: And the cell number ([6]; time 13)?
A: 31

Q: And the cell number ([6]; time 16)?
A: 16

Q: What about the cell number ([6]; time 19) of the same compound?
A: 16

Q: And the cell number ([6]; time 22)?
A: 26

Q: And the cell number ([6]; time 25)?
A: 33

Q: What about the cell number ([7]; time 13) of the same compound?
A: 37

Q: And the cell number ([7]; time 16)?
A: 52

Q: What about the cell number ([7]; time 19) of the same compound?
A: 25

Q: What about the cell number ([7]; time 22) of the same compound?
A: 36

Q: What about the cell number ([7]; time 25) of the same compound?
A: 23
